{
  "source": "PubChem BioAssay AID2060504",
  "about": "(Molecular Pharmacology Branch, DTP, NCI, 2025)",
  "test_system": "636577-100-R-J1-PDC complex spheroid viability",
  "experiment": "Anticancer human tumor 636577-100-R-J1-PDC patient-derived endometrial adenocarcinoma cell line growth inhibition [GQUAD]",
  "settings": "for pIC50: curve of first compound; for viability, T/C: stronger effect = lower value",
  "description": "DNA G-quadruplex Stabilizer Agents in Combinations in Complex Spheroids\nA high-throughput screen of multi-cell type tumor spheroids was designed to identify active combinations of DNA G-quadruplex stabilizer agents and targeted small molecules. Complex spheroids include a stromal component modeled by human endothelial cells (HUVEC) and fibroblasts modeled by human mesenchymal stem cells (MSCs). The concentration ranges selected for each drug and investigational agent were based upon clinically achievable concentrations if the clinical Cmax of the agent was known.\nCompounds. The drugs and investigational agents: pidnarulex (CX-5461; NSC782164), APTO-253 (NSC789042), BRACO-19 (NSC847499), peposertib (NSC802822), ceralasertib (NSC780249), elimusertib (NSC800525), camonsertib (NSC841442), AZD-1390 (NSC803789), olaparib (NSC753686), talazoparib (NSC767125), ART-558 (NSC835418), sotorasib (NSC818433), MRTX-1133 (NSC836407), SN-38 (NSC673596), topotecan (NSC609699), etoposide (NSC141540), doxorubicin (NSC123127), gemcitabine (NSC613327), 5-fluorouracil (NSC19893), paclitaxel (NSC125973), vemurafenib (NSC761431), panobinostat (NSC761190), R-306465 (JNJ-16241199; NSC773264), adavosertib (NSC754352), TP-3654 (NSC805149), carboplatin (NSC241240), KSQ-4279 (NSC840948), and staurosporine (NSC755774) were obtained from the National Cancer Institute (NCI) Developmental Therapeutics Program Chemical Repository (34). The FDA-approved anticancer drug set is available from the NCI Developmental Therapeutics Program. […] The stock solutions were prepared in dimethyl sulfoxide (DMSO, Sigma-Aldrich, St. Louis, MO, cat. D2650) at 800-fold the tested concentration and stored at -70 degrees C prior to their use. All drugs and investigational agents were tested over a range starting from a high concentration at or near the clinical Cmax and decreasing in half-log increments. If the clinical Cmax for an agent had not been determined, the highest concentration tested was 10 microM.\n2.3 Cell Culture. All cells were maintained in an incubator at 37 degrees C and 5% CO2 with 95% humidity. The PDC lines were cultured according to standard operating procedures established by the NCI PDMR. All PDCs were thawed and cultured in Matrigel-coated flasks prepared with a working solution of 1X Ham's F-12 nutrient mix, without supplementation (Invitrogen, cat. 11765054), 100 U/mL penicillin-streptomycin (Invitrogen, cat. 15140122), and 2.5% Matrigel (Corning Inc., cat. 354248) for the first three passages. The 857933-349-R-J2-PDC line was cultured in 6C/Colon 1B media, which includes advanced DMEM/F-12 (Thermo Fisher Scientific, cat. 12634028), 10 mM HEPES (Thermo Fisher Scientific, cat. 15630080), 1X GlutaMAX supplement (Thermo Fisher Scientific, cat. 35050061), 0.1 mg/mL primocin (InvivoGen, cat. ant-pm-2), 10% defined fetal bovine serum, heat inactivated (HyClone Laboratories Inc., cat. SH30070.03HI), 50% L-WRN conditioned media (ATCC, cat. CRL-3276), 1.25 mM N-Acetyl-L-cysteine (Sigma-Aldrich, cat. A9165), 10 mM nicotinamide (Sigma-Aldrich, cat. N0636), 1X B-27 supplement (Thermo Fisher Scientific, cat. 17504044), 1X N-2 supplement (Thermo Fisher Scientific, cat. 17502048), 10 microM Y-27632 dihydrochloride (Tocris Bioscience, cat. 1254), and 50 ng/mL human EGF recombinant protein (Thermo Fisher Scientific, cat. PHG0311). The 485176-168-R4-J1-PDC line was cultured in Panc media, which includes all 6C/Colon 1B media components plus 100 ng/mL human FGF-10 (Thermo Fisher Scientific, cat. 100-26), 500 nM SB-431542 (Selleckchem, cat. S1067), and gastrin (Tocris, cat. 3006).\n[…]",
  "note": "pIC50: −log10 of the molar value.",
  "data": [
    {"compound": "Cc1[nH]c2ccccc2c1CCNCc1ccc(/C=C/C(=O)NO)cc1", "note": "+ Cc1cnc(CNC(=O)c2c(=O)c3ccc(N4CCCN(C)CC4)nc3n3c2sc2ccccc23)cn1;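 also: viability read after seven days of drug exposure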;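 as to viability, T/C: luminescence signal used as a proxy for viable cells; 100% = DMSO vehicle control wells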", "values": [
      {"measurement": "pIC50", "setting": "second compound 0.0316 µM", "result": "> 9.00"},
      {"measurement": "pIC50", "setting": "second compound 0.1 µM", "result": "> 9.00"},
      {"measurement": "pIC50", "setting": "second compound 0.316 µM", "result": "> 9.00"},
      {"measurement": "pIC50", "setting": "second compound 1 µM", "result": "> 9.00"},
      {"measurement": "pIC50", "setting": "second compound 3.16 µM", "result": "> 9.00"},
      {"measurement": "pIC50", "setting": "second compound 10 µM", "result": "> 9.00"},
      {"measurement": "viability, T/C", "setting": "second compound 0.0316 µM, first compound 0.000999 µM", "result": 49.7, "unit": "%"},
      {"measurement": "viability, T/C", "setting": "second compound 0.0316 µM, first compound 0.00316 µM", "result": 28.9, "unit": "%"},
      {"measurement": "viability, T/C", "setting": "second compound 0.0316 µM, first compound 0.00999 µM", "result": 20.8, "unit": "%"},
      {"measurement": "viability, T/C", "setting": "second compound 0.0316 µM, first compound 0.0316 µM", "result": 12.3, "unit": "%"},
      {"measurement": "viability, T/C", "setting": "second compound 0.0316 µM, first compound 0.0999 µM", "result": 6.33, "unit": "%"},
      {"measurement": "viability, T/C", "setting": "second compound 0.0316 µM, first compound 0.316 µM", "result": 8.17, "unit": "%"},
      {"measurement": "viability, T/C", "setting": "second compound 0.1 µM, first compound 0.000999 µM", "result": 32.3, "unit": "%"},
      {"measurement": "viability, T/C", "setting": "second compound 0.1 µM, first compound 0.00316 µM", "result": 22.8, "unit": "%"},
      {"measurement": "viability, T/C", "setting": "second compound 0.1 µM, first compound 0.00999 µM", "result": 24.6, "unit": "%"},
      {"measurement": "viability, T/C", "setting": "second compound 0.1 µM, first compound 0.0316 µM", "result": 12.8, "unit": "%"},
      {"measurement": "viability, T/C", "setting": "second compound 0.1 µM, first compound 0.0999 µM", "result": 6.63, "unit": "%"},
      {"measurement": "viability, T/C", "setting": "second compound 0.1 µM, first compound 0.316 µM", "result": 8.31, "unit": "%"},
      {"measurement": "viability, T/C", "setting": "second compound 0.316 µM, first compound 0.000999 µM", "result": 26.1, "unit": "%"},
      {"measurement": "viability, T/C", "setting": "second compound 0.316 µM, first compound 0.00316 µM", "result": 24.2, "unit": "%"},
      {"measurement": "viability, T/C", "setting": "second compound 0.316 µM, first compound 0.00999 µM", "result": 18.9, "unit": "%"},
      {"measurement": "viability, T/C", "setting": "second compound 0.316 µM, first compound 0.0316 µM", "result": 13.2, "unit": "%"},
      {"measurement": "viability, T/C", "setting": "second compound 0.316 µM, first compound 0.0999 µM", "result": 9.48, "unit": "%"},
      {"measurement": "viability, T/C", "setting": "second compound 0.316 µM, first compound 0.316 µM", "result": 8.5, "unit": "%"},
      {"measurement": "viability, T/C", "setting": "second compound 1 µM, first compound 0.000999 µM", "result": 21.1, "unit": "%"},
      {"measurement": "viability, T/C", "setting": "second compound 1 µM, first compound 0.00316 µM", "result": 20.9, "unit": "%"},
      {"measurement": "viability, T/C", "setting": "second compound 1 µM, first compound 0.00999 µM", "result": 18.7, "unit": "%"},
      {"measurement": "viability, T/C", "setting": "second compound 1 µM, first compound 0.0316 µM", "result": 11.1, "unit": "%"},
      {"measurement": "viability, T/C", "setting": "second compound 1 µM, first compound 0.0999 µM", "result": 8.25, "unit": "%"},
      {"measurement": "viability, T/C", "setting": "second compound 1 µM, first compound 0.316 µM", "result": 8.1, "unit": "%"},
      {"measurement": "viability, T/C", "setting": "second compound 3.16 µM, first compound 0.000999 µM", "result": 20.2, "unit": "%"},
      {"measurement": "viability, T/C", "setting": "second compound 3.16 µM, first compound 0.00316 µM", "result": 23.3, "unit": "%"},
      {"measurement": "viability, T/C", "setting": "second compound 3.16 µM, first compound 0.00999 µM", "result": 21.2, "unit": "%"},
      {"measurement": "viability, T/C", "setting": "second compound 3.16 µM, first compound 0.0316 µM", "result": 12.3, "unit": "%"},
      {"measurement": "viability, T/C", "setting": "second compound 3.16 µM, first compound 0.0999 µM", "result": 10.4, "unit": "%"},
      {"measurement": "viability, T/C", "setting": "second compound 3.16 µM, first compound 0.316 µM", "result": 5.1, "unit": "%"},
      {"measurement": "viability, T/C", "setting": "second compound 10 µM, first compound 0.000999 µM", "result": 22.6, "unit": "%"},
      {"measurement": "viability, T/C", "setting": "second compound 10 µM, first compound 0.00316 µM", "result": 24.1, "unit": "%"},
      {"measurement": "viability, T/C", "setting": "second compound 10 µM, first compound 0.00999 µM", "result": 20.1, "unit": "%"},
      {"measurement": "viability, T/C", "setting": "second compound 10 µM, first compound 0.0316 µM", "result": 11.8, "unit": "%"},
      {"measurement": "viability, T/C", "setting": "second compound 10 µM, first compound 0.0999 µM", "result": 12.2, "unit": "%"},
      {"measurement": "viability, T/C", "setting": "second compound 10 µM, first compound 0.316 µM", "result": 0.15, "unit": "%"}
    ]}
  ]
}
